We go through seven compounds from ChEMBL document CHEMBL1201862, “PubChem BioAssay data set” (2004).

Active and inactive are the calls of the source.

Test [1] deals with Vero. Kind of test: Vero cell cytotoxicity, cytotoxicity control for flavivirus capping enzyme inhibitors (AID 588742). Type of test: functional. The note with it: Chlorocebus sabaeus.
Test [2] addresses T1, Heat shock protein HSP 90-alpha (Homo sapiens, UniProt P07900). Type of test: functional, organism-based.
Test [3] has as its target T2, Streptokinase A (Streptococcus pyogenes serotype M1, UniProt P10520).
T2 sequence (P10520 whole entry): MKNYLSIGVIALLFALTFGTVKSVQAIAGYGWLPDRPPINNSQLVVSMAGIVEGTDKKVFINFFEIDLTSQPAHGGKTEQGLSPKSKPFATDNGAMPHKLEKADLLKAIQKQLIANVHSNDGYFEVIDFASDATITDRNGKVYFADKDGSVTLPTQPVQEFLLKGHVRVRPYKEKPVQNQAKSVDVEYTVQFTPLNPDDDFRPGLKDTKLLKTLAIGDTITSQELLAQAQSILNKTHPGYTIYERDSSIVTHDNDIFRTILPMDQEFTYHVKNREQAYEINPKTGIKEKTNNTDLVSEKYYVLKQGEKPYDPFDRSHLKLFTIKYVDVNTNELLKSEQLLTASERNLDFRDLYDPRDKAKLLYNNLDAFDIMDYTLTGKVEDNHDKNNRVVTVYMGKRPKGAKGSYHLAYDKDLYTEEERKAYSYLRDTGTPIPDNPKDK
Description: S. pyogenes streptokinase expression inhibitors, potency, dose response, plasminogen activation absorbance, OD405 (AID 1914).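 Further: secreted streptokinase activity via plasminogen activation per viability signal from cell pellet.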 Type of test: functional, Streptococcus pyogenes M1 GAS.

Test [4] has as its target T3, RNA-binding protein pos-1 (Caenorhabditis elegans, UniProt G5EF15).
T3 sequence (G5EF15 whole entry): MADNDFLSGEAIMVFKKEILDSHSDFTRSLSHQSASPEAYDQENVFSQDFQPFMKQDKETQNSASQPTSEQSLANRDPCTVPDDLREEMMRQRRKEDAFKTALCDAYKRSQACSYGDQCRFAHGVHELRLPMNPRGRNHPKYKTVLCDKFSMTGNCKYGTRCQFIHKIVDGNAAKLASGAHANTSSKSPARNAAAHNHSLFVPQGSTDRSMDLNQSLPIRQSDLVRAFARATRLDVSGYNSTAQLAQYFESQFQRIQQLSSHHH
Kind of test: inhibitors of POS-1/mex-3 RNA binding, dose response, biochemical, fluorescence polarization (AID 1964).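 Further: purified POS-1 fused to maltose binding protein made in E. coli; potency of compounds blocking POS-1 binding to fluorescent RNA.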

Test [5] addresses T4, Dual specificity protein phosphatase 6 (Rattus norvegicus, UniProt Q64346).
T4 sequence (Q64346 whole entry): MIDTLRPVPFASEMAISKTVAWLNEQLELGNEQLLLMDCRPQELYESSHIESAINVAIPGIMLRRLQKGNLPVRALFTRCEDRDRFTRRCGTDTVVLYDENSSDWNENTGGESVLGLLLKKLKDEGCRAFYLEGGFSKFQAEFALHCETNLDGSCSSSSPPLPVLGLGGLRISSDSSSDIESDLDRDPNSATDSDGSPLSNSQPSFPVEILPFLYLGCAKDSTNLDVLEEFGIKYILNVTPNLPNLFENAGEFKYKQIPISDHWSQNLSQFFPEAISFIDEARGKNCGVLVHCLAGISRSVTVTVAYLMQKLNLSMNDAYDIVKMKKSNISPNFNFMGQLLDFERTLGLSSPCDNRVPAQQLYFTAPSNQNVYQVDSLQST
Kind of test: MKP-3 phosphatase inhibitors, primary screen, biochemical, rat enzyme, in vitro (AID 425).

Test [6] has as its target Heat shock cognate 71 kDa protein (Homo sapiens, UniProt P11142). Kind of test: In Vitro Hsc70 Dose Response Fluorescence Polarization Assay. [Related pubchem assays: 1072 ].
Test [7] concerns the target T5, Ubiquitin-conjugating enzyme E2 N (Homo sapiens, UniProt P61088).
T5 sequence (P61088 whole entry): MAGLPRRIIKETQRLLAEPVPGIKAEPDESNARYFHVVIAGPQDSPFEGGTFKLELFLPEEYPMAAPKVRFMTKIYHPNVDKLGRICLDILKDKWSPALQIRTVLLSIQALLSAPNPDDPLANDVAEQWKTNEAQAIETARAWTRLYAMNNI
It counts as functional.

The target in test [8] is Vascular endothelial growth factor receptor 1 (Homo sapiens, UniProt P17948). It counts as functional.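 Further: measured within a kinome-wide profiling panel, FLT1 as the panel member.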
For test [9], the target named is cAMP-dependent protein kinase catalytic subunit PRKX (Homo sapiens, UniProt P51817). Type of test: functional.
Test [10] in a line: cytotoxicity in HEK-293T cells, dose response, cytotoxicity control for TCR NF-kB inhibitor project, luminescence, T-cell screen hits (AID 489026).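 Further: cells exposed to compound about 14 hours before the viability readout.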 It counts as functional, cell-based.
In test [11] the target is T1, Heat shock protein HSP 90-alpha. Kind of test: Luminescence-based dose response biochemical high throughput screening assay for inhibitors of the Heat Shock Protein 90 (HSP90). [Related pubchem assays: 1831 (Summary AID.), 1846 (Confirmation screen.), 1789 (Primary screen.)].
Test [12] has as its target Nonstructural protein 1 (Influenza A virus, UniProt Q194T2). Type of test: functional, Influenza A virus (A/California/07/2009(H1N1)).
Test [13] has as its system BJ. Kind of test: cytotoxicity toward BJ-TERT fibroblasts, dose response, cell-based, RAS-independent, luminescence (AID 1933). It counts as functional. The note with it: Homo sapiens.
Test [14] can be described thus: AlphaScreen signal interference compounds, dose response, artefact control for ARNT-TACC3 interaction inhibitor project, biochemical, luminescence, cherry-pick (AID 651705).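 Further: AlphaScreen bead proximity signal that flags compounds interfering with the detection technology; potency reflects signal decrease which marks the compound as an assay artifact.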 Type of test: functional. (Alpha assays give light when donor and acceptor beads are brought close together.)
The target of test [15] is Maternal embryonic leucine zipper kinase (Homo sapiens, UniProt Q14680). It counts as functional.
Test [16] has as its target Testis-specific serine/threonine-protein kinase 2 (Homo sapiens, UniProt Q96PF2). Type of test: functional.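 Further: part of the Navigating the Kinome panel, target entry STK22B.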
The target of test [17] is Serine/threonine-protein kinase MRCK alpha (Homo sapiens, UniProt Q5VT25). Type of test: functional.
Test [18] deals with RAC-gamma serine/threonine-protein kinase (Homo sapiens, UniProt Q9Y243). It counts as functional.
In test [19] the target is Protein kinase C delta type (Homo sapiens, UniProt Q05655). Type of test: functional.
The target in test [20] is Tyrosine-protein kinase receptor UFO (Homo sapiens, UniProt P30530). Type of test: functional.
The target of test [21] is SRSF protein kinase 1 (Homo sapiens, UniProt Q96SB4). Type of test: functional.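 Further: measured as one member of a kinome-wide kinase profiling panel.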
The target in test [22] is Protein kinase C iota type (Homo sapiens, UniProt P41743). Type of test: functional.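 Further: measured within a kinome-wide kinase panel, PRKCI as panel member.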
In test [23] the target is 3-phosphoinositide-dependent protein kinase 1 (Homo sapiens, UniProt O15530). It counts as functional.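 Further: value comes from the Navigating the Kinome panel, PDPK1 member.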
Test [24] has as its target Tyrosine-protein kinase Fer (Homo sapiens, UniProt P16591). It counts as functional.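 Further: FER tested as one member of a kinome panel.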
The target of test [25] is Protein-tyrosine kinase 2-beta (Homo sapiens, UniProt Q14289). Type of test: functional.
The target of test [26] is Tyrosine-protein kinase Srms (Homo sapiens, UniProt Q9H3Y6). Type of test: functional.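 Further: SRMS measured as one member of a kinome-wide kinase profiling panel.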
Test [27] has as its target Homeodomain-interacting protein kinase 4 (Homo sapiens, UniProt Q8NE63). It counts as functional.

Tyrosine-protein kinase Fer, sequence (P16591 whole entry): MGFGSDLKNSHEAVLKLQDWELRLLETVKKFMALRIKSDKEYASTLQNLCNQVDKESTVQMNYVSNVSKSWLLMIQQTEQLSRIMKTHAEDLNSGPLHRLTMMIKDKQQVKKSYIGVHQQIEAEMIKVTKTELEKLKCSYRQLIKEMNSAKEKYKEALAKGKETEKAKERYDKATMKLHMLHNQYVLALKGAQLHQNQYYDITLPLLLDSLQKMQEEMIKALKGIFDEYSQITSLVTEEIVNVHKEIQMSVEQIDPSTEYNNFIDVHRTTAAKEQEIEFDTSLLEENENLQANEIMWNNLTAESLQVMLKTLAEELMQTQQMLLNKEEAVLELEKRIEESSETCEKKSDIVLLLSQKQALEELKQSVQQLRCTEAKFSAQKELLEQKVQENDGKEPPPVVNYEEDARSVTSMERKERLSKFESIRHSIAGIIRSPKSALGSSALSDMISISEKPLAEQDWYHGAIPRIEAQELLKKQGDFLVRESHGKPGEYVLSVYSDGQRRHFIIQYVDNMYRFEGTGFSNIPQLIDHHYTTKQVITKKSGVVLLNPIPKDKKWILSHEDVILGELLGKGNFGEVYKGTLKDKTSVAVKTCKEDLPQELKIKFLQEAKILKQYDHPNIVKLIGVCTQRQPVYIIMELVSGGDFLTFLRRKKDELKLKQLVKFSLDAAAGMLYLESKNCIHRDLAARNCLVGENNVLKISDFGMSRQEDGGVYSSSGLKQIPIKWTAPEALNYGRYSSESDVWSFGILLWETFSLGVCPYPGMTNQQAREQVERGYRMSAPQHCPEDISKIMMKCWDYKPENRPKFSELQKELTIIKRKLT
Protein kinase C iota type, sequence (P41743 whole entry): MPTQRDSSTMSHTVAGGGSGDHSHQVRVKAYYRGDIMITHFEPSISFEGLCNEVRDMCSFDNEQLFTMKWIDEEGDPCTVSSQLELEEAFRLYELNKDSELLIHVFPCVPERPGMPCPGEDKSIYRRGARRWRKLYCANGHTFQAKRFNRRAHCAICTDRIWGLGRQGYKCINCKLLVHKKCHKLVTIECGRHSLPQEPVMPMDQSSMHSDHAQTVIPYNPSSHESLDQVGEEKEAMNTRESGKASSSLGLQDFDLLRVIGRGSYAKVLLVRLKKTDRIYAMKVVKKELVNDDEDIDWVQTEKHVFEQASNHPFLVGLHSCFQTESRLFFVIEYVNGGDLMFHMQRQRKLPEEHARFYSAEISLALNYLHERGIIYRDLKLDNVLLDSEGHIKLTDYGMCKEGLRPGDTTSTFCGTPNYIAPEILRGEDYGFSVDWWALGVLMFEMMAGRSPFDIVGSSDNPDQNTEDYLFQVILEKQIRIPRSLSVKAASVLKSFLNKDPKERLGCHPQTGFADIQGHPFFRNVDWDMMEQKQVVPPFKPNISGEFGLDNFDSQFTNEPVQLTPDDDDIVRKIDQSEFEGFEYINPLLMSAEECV
Testis-specific serine/threonine-protein kinase 2, sequence (Q96PF2 whole entry): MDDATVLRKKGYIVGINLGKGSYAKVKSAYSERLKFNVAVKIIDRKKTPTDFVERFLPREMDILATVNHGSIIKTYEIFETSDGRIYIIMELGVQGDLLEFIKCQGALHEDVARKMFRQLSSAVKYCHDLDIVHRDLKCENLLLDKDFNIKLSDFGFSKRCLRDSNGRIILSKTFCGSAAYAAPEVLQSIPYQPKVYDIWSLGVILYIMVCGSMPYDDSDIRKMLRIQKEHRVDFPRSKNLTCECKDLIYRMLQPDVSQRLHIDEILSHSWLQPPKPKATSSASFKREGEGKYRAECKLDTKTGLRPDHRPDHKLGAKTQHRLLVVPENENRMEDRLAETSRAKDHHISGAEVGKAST
Tyrosine-protein kinase Srms, sequence (Q9H3Y6 whole entry): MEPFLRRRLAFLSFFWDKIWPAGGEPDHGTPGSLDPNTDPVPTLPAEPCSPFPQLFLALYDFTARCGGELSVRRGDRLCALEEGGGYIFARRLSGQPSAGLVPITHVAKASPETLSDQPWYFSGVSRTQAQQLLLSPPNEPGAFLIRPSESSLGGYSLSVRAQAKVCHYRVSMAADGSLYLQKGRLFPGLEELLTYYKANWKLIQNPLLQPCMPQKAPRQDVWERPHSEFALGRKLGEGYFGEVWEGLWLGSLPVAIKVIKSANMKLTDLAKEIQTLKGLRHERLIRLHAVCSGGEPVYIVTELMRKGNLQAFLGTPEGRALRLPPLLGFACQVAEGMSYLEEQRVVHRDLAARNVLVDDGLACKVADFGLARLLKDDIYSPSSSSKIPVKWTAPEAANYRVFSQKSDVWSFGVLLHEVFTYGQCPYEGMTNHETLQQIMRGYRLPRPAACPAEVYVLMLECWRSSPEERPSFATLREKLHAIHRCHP
Tyrosine-protein kinase receptor UFO, sequence (P30530 whole entry): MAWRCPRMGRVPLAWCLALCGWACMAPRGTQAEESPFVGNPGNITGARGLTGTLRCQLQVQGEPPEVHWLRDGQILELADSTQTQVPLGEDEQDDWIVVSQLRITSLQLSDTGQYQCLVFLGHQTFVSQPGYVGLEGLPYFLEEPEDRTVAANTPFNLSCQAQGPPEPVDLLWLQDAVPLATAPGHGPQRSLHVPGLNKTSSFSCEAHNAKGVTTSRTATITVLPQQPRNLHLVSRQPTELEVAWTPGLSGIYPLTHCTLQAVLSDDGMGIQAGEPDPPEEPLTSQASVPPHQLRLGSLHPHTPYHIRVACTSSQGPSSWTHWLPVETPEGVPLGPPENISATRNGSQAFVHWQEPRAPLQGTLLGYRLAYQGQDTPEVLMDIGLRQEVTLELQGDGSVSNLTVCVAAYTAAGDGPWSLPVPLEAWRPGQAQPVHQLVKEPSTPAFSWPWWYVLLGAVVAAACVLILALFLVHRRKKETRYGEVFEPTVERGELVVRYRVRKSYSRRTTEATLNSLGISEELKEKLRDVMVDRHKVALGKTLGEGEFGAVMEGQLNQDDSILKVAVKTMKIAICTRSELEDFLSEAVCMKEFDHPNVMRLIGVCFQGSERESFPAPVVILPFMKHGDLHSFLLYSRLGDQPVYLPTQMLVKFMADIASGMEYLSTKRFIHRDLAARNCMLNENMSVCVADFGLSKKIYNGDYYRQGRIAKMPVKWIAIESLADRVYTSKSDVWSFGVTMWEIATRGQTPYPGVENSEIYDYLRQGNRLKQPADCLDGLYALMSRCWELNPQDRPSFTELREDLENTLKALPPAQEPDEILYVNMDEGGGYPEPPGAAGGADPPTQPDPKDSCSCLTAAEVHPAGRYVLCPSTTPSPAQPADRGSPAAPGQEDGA
Vascular endothelial growth factor receptor 1, sequence (P17948 whole entry): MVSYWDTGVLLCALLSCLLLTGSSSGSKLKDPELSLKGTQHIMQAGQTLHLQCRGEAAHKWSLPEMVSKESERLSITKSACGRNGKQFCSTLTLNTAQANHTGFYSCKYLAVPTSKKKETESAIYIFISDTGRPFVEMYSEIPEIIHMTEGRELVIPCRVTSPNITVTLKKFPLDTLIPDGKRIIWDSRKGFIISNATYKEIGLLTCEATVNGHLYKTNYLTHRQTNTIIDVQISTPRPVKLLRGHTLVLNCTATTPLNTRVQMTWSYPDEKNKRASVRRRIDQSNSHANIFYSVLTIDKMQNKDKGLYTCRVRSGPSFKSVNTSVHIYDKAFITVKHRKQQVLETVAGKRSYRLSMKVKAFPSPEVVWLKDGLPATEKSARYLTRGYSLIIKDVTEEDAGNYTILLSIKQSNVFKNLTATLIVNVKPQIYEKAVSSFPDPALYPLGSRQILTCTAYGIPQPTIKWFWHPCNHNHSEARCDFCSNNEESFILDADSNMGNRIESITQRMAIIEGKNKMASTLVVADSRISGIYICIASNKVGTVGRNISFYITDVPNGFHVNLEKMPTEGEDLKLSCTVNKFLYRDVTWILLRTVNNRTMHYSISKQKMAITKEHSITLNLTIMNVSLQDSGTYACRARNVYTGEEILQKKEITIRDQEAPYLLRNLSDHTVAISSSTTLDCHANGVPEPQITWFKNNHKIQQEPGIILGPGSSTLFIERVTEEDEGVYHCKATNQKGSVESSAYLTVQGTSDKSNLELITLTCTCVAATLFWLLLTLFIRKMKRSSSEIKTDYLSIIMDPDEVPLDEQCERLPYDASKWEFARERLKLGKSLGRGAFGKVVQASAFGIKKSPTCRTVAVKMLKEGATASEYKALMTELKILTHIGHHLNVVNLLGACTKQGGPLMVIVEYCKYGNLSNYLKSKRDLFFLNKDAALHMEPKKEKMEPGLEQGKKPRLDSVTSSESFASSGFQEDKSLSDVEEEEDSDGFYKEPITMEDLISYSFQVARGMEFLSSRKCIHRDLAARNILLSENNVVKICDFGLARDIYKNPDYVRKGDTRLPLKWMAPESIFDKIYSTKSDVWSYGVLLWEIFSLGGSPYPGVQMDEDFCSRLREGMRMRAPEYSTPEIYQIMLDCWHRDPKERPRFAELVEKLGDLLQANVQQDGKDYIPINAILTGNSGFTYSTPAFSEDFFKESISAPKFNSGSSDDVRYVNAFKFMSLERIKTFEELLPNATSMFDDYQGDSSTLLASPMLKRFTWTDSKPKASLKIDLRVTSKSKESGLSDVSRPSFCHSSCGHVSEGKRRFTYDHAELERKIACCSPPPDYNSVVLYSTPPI
RAC-gamma serine/threonine-protein kinase, sequence (Q9Y243 whole entry): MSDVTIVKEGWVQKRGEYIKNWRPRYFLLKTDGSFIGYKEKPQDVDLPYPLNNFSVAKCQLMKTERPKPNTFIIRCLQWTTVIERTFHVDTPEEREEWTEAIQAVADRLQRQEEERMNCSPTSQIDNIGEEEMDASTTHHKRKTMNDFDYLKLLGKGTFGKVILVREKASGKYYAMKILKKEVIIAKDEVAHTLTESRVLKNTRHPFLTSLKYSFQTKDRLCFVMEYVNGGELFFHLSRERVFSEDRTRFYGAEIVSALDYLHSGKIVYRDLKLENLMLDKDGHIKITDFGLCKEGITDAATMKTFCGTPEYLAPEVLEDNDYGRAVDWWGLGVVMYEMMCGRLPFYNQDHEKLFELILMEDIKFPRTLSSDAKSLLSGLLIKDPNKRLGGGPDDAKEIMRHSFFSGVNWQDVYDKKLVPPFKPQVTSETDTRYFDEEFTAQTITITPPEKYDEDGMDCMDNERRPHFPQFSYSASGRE

The term CC50 denotes the concentration at which the toxic effect on the cells reaches its halfway point. As usually defined, the AC50 is the midpoint of the concentration-response curve, whichever way the signal moves. On to `O=C1/C(=C\c2cccc(O)c2O)SC(=S)N1Cc1ccccc1`, for which the CC50 in [1] is 16.1 µM (active). The AC50 in test [2] was 13.4 µM (active).
In general, EC50 refers to the concentration giving half of the maximal effect. For the compound `CC(C)(C)c1cc[n+](C2=C([N-]S(=O)(=O)c3cccs3)C(=O)c3ccccc3C2=O)cc1`, the 50% effective concentration (EC50) in test [3] is 3.8 µM (active).
Broadly, the IC50 is the concentration needed to halve the response being measured. With `COc1cccc2c1NC(C(=O)O)C1CC=CC21` (configuration not stated), the EC50 in test [4] was 19.5 µM (inconclusive). Also, the IC50 was > 10 µM (not active) in [5], 25.2 µM (active) in [6] and > 20 µM (inactive) in test [7].
A word on the Ki: it is the dissociation constant of the complex between target and ligand, obtained from inhibition or displacement. On to `COc1c(-c2nc3ccccc3[nH]2)c(O)cc2oc(C)cc(=O)c12`, for which the Ki in test [8] was 2 µM (active); in test [9], > 3.16 µM (inactive).
On to `CCc1ccc(S(=O)(=O)/N=C2\C=C(Nc3ccc(O)cc3)C(=O)c3ccccc32)cc1`, for which the 50% inhibitory concentration (IC50) in test [10] is 3.96 µM (active); in test [11] it was 1.28 µM (active); in [12], 5.88 µM (active). Moreover, in test [13], the half-maximal effective concentration (EC50) was 1.51 µM (active).
As for `Cc1cc([N+](=O)[O-])cc(/C=N\NC(=O)C2COc3ccccc3O2)c1O` (configuration not stated), the AC50 in [14] is 93.6 µM (active).
With `Cc1ccc(F)c(NC(=O)Nc2ccc(-c3cccc4[nH]nc(N)c34)cc2)c1` [LINIFANIB], the Ki in [15] was 2 µM (active); in test [16], > 1.58 µM (inactive); in [17], > 10 µM (inactive); in [18], > 10 µM (inactive); in test [19], > 7.94 µM (inactive); in test [20] it was 0.126 µM (active). Besides, the Ki was 7.94 µM (active) in test [21]; > 5.01 µM (inactive) in [22]; > 3.98 µM (inactive) in test [23]; 0.501 µM (active) in [24]; > 1.58 µM (inactive) in test [25]; 1.58 µM (active) in test [26]. For the same compound, the Ki in test [27] was 0.0398 µM (active).
